{
  "source": "patent US20160193139A1",
  "about": "“Composition having A. paniculata for wound healing and skin whitening, and method by using the same” (National Dong Hua University, priority 2013, published 2016)",
  "key": {"[1]": {"test_system": "melanin in A375 cells", "assay": "Melanin assay in A375 cells", "type": "cell-based, human", "conditions": "after normalization with cell number, dose-dependent manner, FIG. 5B", "procedure": "Cells (1×10^5 cells) were seeded in 12 well plates and treated with drugs for 24 or 48 hr. Plates were washed with PBS and added 0.5 ml of 1N NaOH, and heating at 100° C. for 1 h. Plates were then centrifuged at 12,000 rpm for 30 min at 25° C. Supernatants (100 μl/well) were added into 96 well plates, and the secretion of melanin was determined by measuring the absorbance at 405 nm using microplate reader (Thermo Labsystems)."}, "[2]": {"test_system": "HaCaT cells", "assay": "MTT cell viability assay, HaCaT cells", "type": "cell-based, human", "conditions": "FIG. 1B", "procedure": "(§1) HaCaT cell is an immortal human keratinocyte line (CLS order no. 300493) and A375 cell is a human melanoma cell line (ATCC, CRL-1619) that isolated from malignant melanoma. Both cells were cultured in Dulbecco's Modified Eagle Medium (DMEM; Gibco, Carlsbad, Calif., USA) with 10% fetal bovine serum (FBS; Gibco), and 1% Penicillin/Streptomycin (Biowest) in culture incubator at 37° C., 5% CO2. CCD-966SK is a human skin fibroblast (ATCC, CRL-1881) cell line that taken from the breast of patient with invasive ductal carcinoma and cultured in Minimum Essential Medium (MEM; Gibco) with 10% FBS, 1% sodium pyruvate (Biowest), and 1% Penicillin/Streptomycin (Biowest) in culture incubator at 37° C., 5% CO2.\n(§2) The 3-(4,5-dimethylthiazol-2-yl)-2,5-diphenyltetrazolium bromide (MTT, Invitrogen) is a colorimetric based assay that is performed to analyze the proliferation of cells. Cells (1×10^4 cells) were seeded in 96 well plates for overnight. […] The media was removed, and formazan was solubilized by adding 100 of DMSO (Sigma-Aldrich) and absorbance was measured at 570 nm using a microplate reader (Thermo Labsystems, Opsys MR, USA). […]"}, "[3]": {"test_system": "CCD-966SK cells", "assay": "MTT cell viability assay, CCD-966SK cells", "type": "cell-based, human", "conditions": "50 μg/ml; 24 and 48 h; FIG. 2B", "procedure": "as §1, §2"}, "[4]": {"test_system": "A375 cell", "assay": "MTT cell viability assay, A375 cells", "type": "cell-based, human", "conditions": "dose-dependent manner; FIG. 5A", "procedure": "as §1, §2"}, "[5]": {"test_system": "burn wound on back skin of C57BL/6 mice", "assay": "Animal skin injury (burn wound) model, wound healing", "type": "in vivo", "conditions": "for Wound Area: cream spread on burned site once/day, extract and Andrographolide 0.1 mg/ml, Silver sulfadiazine 1%, mean ± SD", "description": "These mice were used between 8 to 10 weeks of age and age-matched for each experiment.\nA cream matrix containing 1 g polyethylene glycol/poly propylene glycol/poly ethylene glycol (PEG-PPG-PEG; MW=5800; Sigma), 2 ml polyethylene glycol-400 (PEG-400; FCW®, Taiwan), and 3 ml polyethylene glycol-1500 (PEG-1500; FCW®, Taiwan) was formed. The solution of A. paniculata extract and Andrographolide was added into cream matrix and completely mixed (for both of them, the final concentration is 0.1 mg/ml).\nMice were anesthetized by pentobarbital (50 mg/kg) and removed the hair of back. A stainless steel cylinder tool (1 cm in diameter, 0.785 cm^2 cm in area) was heated for 20 sec and attached on back skin of mice for 2 sec. […] The wound area was measured on days 1, 3, 5, 7, 9, 11, 13, 15, 17, 19, and 21 after drug treatment."}},
  "data": [
    {"compound": "C=C1CC[C@@H]2[C@](C)(CO)[C@H](O)CC[C@@]2(C)[C@@H]1C/C=C1/C(=O)OC[C@H]1O", "note": "[Andrographolide]", "values": [
      {"measurement": "expression level of melanin", "setting": "[1]", "result": "significantly inhibited"},
      {"measurement": "cell viability of HaCaT cells", "setting": "[2]; 50 μg/ml, 24 and 48 h", "result": "significantly decreased"},
      {"measurement": "cell viability of HaCaT cells", "setting": "[2]; low doses (1, 5, and 10 μg/ml), 24 h", "result": "significantly enhanced"},
      {"measurement": "cell viability of CCD-966SK cells", "setting": "[3]", "result": "significantly decreased"},
      {"measurement": "cell viability of A375 cell", "setting": "[4]", "result": "significantly inhibited"},
      {"measurement": "wound healing rate compared with silver sulfadiazine-treated mice", "setting": "[5]; 0.1 mg/ml cream once/day vs Silver sulfadiazine 1%, FIG. 3", "result": "two days earlier"},
      {"measurement": "Wound Area", "setting": "[5]; DAY 1", "result": "133.57 ± 28.46", "unit": "mm^2"},
      {"measurement": "Wound Area", "setting": "[5]; DAY 3", "result": "111.94 ± 24.09", "unit": "mm^2"},
      {"measurement": "Wound Area", "setting": "[5]; DAY 5", "result": "85.15 ± 13.35", "unit": "mm^2"},
      {"measurement": "Wound Area", "setting": "[5]; DAY 7", "result": "48.43 ± 5.91", "unit": "mm^2"},
      {"measurement": "Wound Area", "setting": "[5]; DAY 9", "result": "28.22 ± 9.40", "unit": "mm^2"},
      {"measurement": "Wound Area", "setting": "[5]; DAY 11", "result": "16.46 ± 5.43", "unit": "mm^2"},
      {"measurement": "Wound Area", "setting": "[5]; DAY 13", "result": "11.62 ± 4.49", "unit": "mm^2"},
      {"measurement": "Wound Area", "setting": "[5]; DAY 15", "result": "6.94 ± 5.04", "unit": "mm^2"},
      {"measurement": "Wound Area", "setting": "[5]; DAY 17", "result": "4.12 ± 3.96", "unit": "mm^2"},
      {"measurement": "Wound Area", "setting": "[5]; DAY 19", "result": 0, "unit": "mm^2"},
      {"measurement": "Wound Area", "setting": "[5]; DAY 21", "result": 0, "unit": "mm^2"}
    ]}
  ]
}
